Source: patent publication US11427539B2, “Beta-hydroxy heterocyclic amines and their use in the treatment of hyperglycaemia” (ATROGI AB, priority 2017, dated 2022)
Counter-ions that a name gives are not always drawn.

How the values were obtained:
[1] = system: Differentiated L6-myotubes; test: Glucose uptake in differentiated L6-myotubes (3H-2-deoxy-glucose); assay type: cell-based; settings: agonist final concentration 1×10^−5; L6-myotubes; 3H-2-deoxy-glucose uptake; relative to isoproterenol; read-out: Biological example 1: glucose uptake, activity compared to that of isoproterenol
[2] = system: Intracellular cAMP levels in differentiated cells (L6-myotubes); test: Measurement of intracellular cAMP levels (alpha screen cAMP kit); assay type: cell-based; settings: 0.25 h; agonist final concentration 1×10-^5, 15 min; differentiated cells; relative to isoproterenol; read-out: Biological example 2: intracellular cAMP levels, activity compared to that of isoproterenol
Procedure: L6-myoblasts were grown in Dulbecco's Modified Eagle's Medium (DMEM) containing 4.5 g/l glucose supplemented with 10% fetal bovine serum, 2 mM L-Glutamine, 50 U/ml penicillin, 50 μg/ml streptomycin and 10 mM HEPES. Cells were plated at 1×10^5 cells per ml in 24-well plates. After reaching 90% confluence the cells were grown in medium containing 2% FBS for 7 days where upon cells differentiated into myotubes. Differentiated cells were serum-starved over night and stimulated with agonist, final concentration 1×10-^5, for 15 min in stimulation buffer (HBSS supplemented with 1% BSA, 5 mM HEPES and 1 mM IBMX, pH 7.4) The medium was then aspirated and to end the reaction 100 μL of 95% EtOH was added to each well of a 24-well plate and cells were kept in −20° C. over night. The EtOH was let to evaporate and 500 μL of lysis buffer (1% BSA, 5 mM HEPES and 0.3% Tween-20, pH 7.4) was added to each well before put in −80° C. for 30 min and then kept in −20° C. Intracellular cAMP levels were detected using an alpha screen cAMP kit (6760635D from Perkin Elmer). The activity for each compound is compared to that of isoproterenol.

Structure (SMILES) | Emax [1] [%] | Emax [2] [%]
CCC[C@@H]1CCC[C@@H]([C@H](O)c2cccc(F)c2)N1 [Example 29, (R)-(3-Fluorophenyl)((2S,6R)-6-propylpiperidin-2-yl)methanol hydrochloride] | 25 to 50 | < 25
CCC[C@@H]1CCC[C@@H]([C@H](O)c2cccc(Cl)c2)N1 [Example 30, (R)-(3-Chlorophenyl)((2S,6R)-6-propylpiperidin-2-yl)methanol hydrochloride] | > 75 | < 25
CCC[C@@H]1CCC[C@@H]([C@H](O)c2cccc(O)c2)N1 [Example 32, 3-((R)-hydroxy((2S,6R)-6-propylpiperidin-2-yl)methyl)phenol Hydrochloride] | > 75 | < 25
CCC[C@H]1CCC[C@@H]([C@H](O)c2cccc(F)c2)N1 [Example 34, (R)-(3-Fluorophenyl)((2S,6S)-6-propylpiperidin-2-yl)methanol hydrochloride] | 50 to 75 | < 25
CCC[C@H]1CCC[C@@H]([C@@H](O)c2cccc(F)c2)N1 [Example 35, (S)-(3-Fluorophenyl)((2S,6S)-6-propylpiperidin-2-yl)methanol hydrochloride] | 25 to 50 | < 25
CCC[C@H]1CCC[C@@H]([C@H](O)c2cccc(Cl)c2)N1 [Example 36, (R)-(3-Chlorophenyl)((2S,6S)-6-propylpiperidin-2-yl)methanol hydrochloride] | 25 to 50 | < 25
CCC[C@H]1CCC[C@@H]([C@H](O)c2cccc(O)c2)N1 [Example 37, (R)-(3-Hydroxyphenyl)((2S, 6S)-6-propylpiperidin-2-yl)methanol] | 50 to 75 | < 25
CCC[C@@H]1CC[C@H]([C@@H](O)c2cccc(F)c2)N1 [Example 39, (S)-(3-Fluorophenyl)((2R,5R)-5-propylpyrrolidin-2-yl)methanol Hydrochloride] | 50 to 75 | < 25
CCC[C@@H]1CC[C@H]([C@@H](O)c2cccc(O)c2)N1 [Example 40, 3-((S)-Hydroxy((2R,5R)-5-propylpyrrolidin-2-yl)methyl)phenol] | 25 to 50 | < 25
CCC[C@H]1CC[C@@H]([C@H](O)c2cccc(F)c2)N1 [Example 41, (R)-(3-fluorophenyl)((2S,5S)-5-propylpyrrolidin-2-yl)methanol Hydrochloride] | 50 to 75 | < 25
CCC[C@H]1CC[C@@H]([C@@H](O)c2cccc(F)c2)N1 [Example 42, (S)-(3-Fluorophenyl)((2S,5S)-5-propylpyrrolidin-2-yl)methanol Hydrochloride] | 50 to 75 | < 25
CCC[C@@H]1CC[C@@H]([C@H](O)c2cccc(F)c2)N1 [Example 43, (R)-(3-Fluorophenyl)((2S,5R)-5-propylpyrrolidin-2-yl)methanol Hydrochloride] | 25 to 50 | < 25
CCC[C@@H]1CC[C@@H]([C@@H](O)c2cccc(F)c2)N1 [Example 44, (S)-(3-Fluorophenyl)((2S,5R)-5-propylpyrrolidin-2-yl)methanol Hydrochloride] | 50 to 75 | < 25
CCC[C@H]1CC[C@H]([C@H](O)c2cccc(F)c2)N1 [Example 45, (R)-(3-Fluorophenyl)((2R,5S)-5-propylpyrrolidin-2-yl)methanol] | 50 to 75 | < 25
CCC[C@@H]1CC[C@H]([C@H](O)c2cccc(Cl)c2)N1 [Example 47, (R)-(3-Chlorophenyl)((2R,5R)-5-propylpyrrolidin-2-yl)methanol Maleate] | 50 to 75 | < 25
